# Patent publication US20260209242A1, “CAMPTOTHECIN DERIVATIVE, PHARMACEUTICAL COMPOSITION, AND PREPARATION METHOD AND USE THEREFOR” (priority 2022, published 2026)
# Like-named read-outs stand apart in the source and are kept apart here.
# Legend:
# Format in all cases: cell-based
# NCI-N87 = test: Inhibition of proliferation of cells NCI-N87 (CelltiterGlo, 72 h)
# Procedure: (§1) • (1) Cell plating: first, tumor cells NCI-N87 were cultured using a corresponding culture medium, trypsinized, centrifuged, resuspended for counting, adjusted to an appropriate concentration, and then plated on a 384-well plate. • (2) Co-incubation of the compounds and tumor cells: after the cells adhered to the wall, 100 nL of a diluted bioactive substance (test compound) was added to the cell culture plate using ECHO, the final concentration of DMSO in wells of the cell plate was 0.33%, and the incubation was performed in an incubator at 37° C. with 0% CO2 for 72 h. • (3) After the incubation was complete, 30 μL of a CTG reagent (CelltiterGlo kit) was added to each well. The culture was oscillated on a fast oscillator for 2 min, centrifuged at 1,000 rpm for 1 min, and kept away from light at room temperature for 30 min. The chemiluminescence signal value was read using an Envision instrument. • (4) Cell viability detection: IC50 was calculated using GraphPad Prism 8 software, and the IC50 of the compounds was obtained using the following nonlinear fitting formula (see Table 3):
# [formula] • Y: inhibition rate, X: log value of compound concentration;
# (§2) [formula] • high-reading control wells: cells with addition of 100 nL DMSO; and • low-reading control wells: cell-free wells.
# SK-BR-3 = test: Inhibition of proliferation of cells SK-BR-3 (CelltiterGlo, 72 h)
# Procedure: as §1, with “SK-BR-3” for “NCI-N87”, “5%” for “0%”, “1):” for “3):”
# [formula] • Y: inhibition rate; X: log value of compound concentration-,
# as §2
# MDA-MB-468 = test: Inhibition of proliferation of cells MDA-MB-468 (CelltiterGlo, 72 h)
# Procedure: as §1, with “MDA-MB-468” for “NCI-N87”, “2):” for “3):”
# [formula] • Y: inhibition rate: X: log value of compound concentration;
# as §2
# [1] = Homo sapiens, NCI-N87, 72 h, read-out: IC50 (nM), antiproliferative activity on cells NCI-N87, NCI-N87 cells, 72 h, CTG
# [2] = Homo sapiens, SK-BR-3, 72 h, read-out: IC50 (nM), antiproliferative activity on SK-BR-3, SK-BR-3 cells, 72 h, CTG
# [3] = NCI-N87 cells, 72 h, CTG, read-out: IC50 (nM), antiproliferative activity on cells NCI-N87
# [4] = MDA-MB-468 cells, 72 h, CTG, read-out: IC50 (nM), antiproliferative activity on MDA-MB-468
# [5] = Homo sapiens, MDA-MB-468, 72 h, read-out: IC50 (nM), antiproliferative activity on MDA-MB-468, MDA-MB-468 cells, 72 h, CTG
compound,measurement,setting,value
"CC[C@@]1(O)C(=O)OCc2c1cc1n(c2=O)Cc2c-1nc1cc(F)c(C3CC3)c3c1c2C(NC(=O)[C@H]1C[C@@H](O)C1)CC3 (stereo partly drawn) [Compound 18-1, (1S,3S)—N-((1R,9S)-4-cyclopropyl-9-ethyl-5-fluoro-9-hydroxy-10,13-dioxo-2,3,9,10,13,15-hexahydro-1H,12H-benzo[d]pyrano[3′,4′:6,7]indolizino[1,2-b]quinolin-1-yl)-3-hydroxycyclobutane-1-carboxamide]",IC50,NCI-N87; [1],11.2 nM
same,IC50,SK-BR-3; [2],13.8 nM
"(1S,3S)—N-((1R,10S)-5-cyclopropyl-10-ethyl-6-fluoro-10-hydroxy-11,14-dioxo-1,2,3,4,10,11,14,16-octahydro-13H-cyclohepta[de]pyrano[3′,4′:6,7]indolizino[1,2-b]quinolin-1-yl)-3-hydroxybutane-1-carboxamide [Compound 20-1]",IC50,NCI-N87; [3],26 nM
same,IC50,MDA-MB-468; [4],15.6 nM
same,IC50,"SK-BR-3; SK-BR-3 cells, 72 h, CTG, read-out: IC50 (nM), antiproliferative activity on SK-BR-3",21 nM
"CC[C@@]1(O)C(=O)OCc2c1cc1n(c2=O)Cc2c-1nc1cc(F)c(C3CC3)c3c1c2[C@@H](NC(=O)C[C@@H](O)C1CC1)CC3 [Compound 34-2, (R)-3-cyclopropyl-N-((1S,9S)-4-cyclopropyl-9-ethyl-5-fluoro-9-hydroxy-10,13-dioxo-2,3,9,10,13,15-hexahydro-1H,12H-benzo[d]pyrano[3′,4′:6,7]indolizino[1,2-b]quinolin-1-yl)-3-hydroxypropanamide]",IC50,NCI-N87; [1],6 nM
same,IC50,MDA-MB-468; [5],4 nM
same,IC50,SK-BR-3; [2],4.8 nM
"CC[C@@]1(O)C(=O)OCc2c1cc1n(c2=O)Cc2c-1nc1cc(F)c(C3CC3)c3c1c2[C@@H](NC(=O)C[C@H](O)C1CC1)CC3 [Compound 34-1, (S)-3-cyclopropyl-N-((1S,9S)-4-cyclopropyl-9-ethyl-5-fluoro-9-hydroxy-10,13-dioxo-2,3,9,10,13,15-hexahydro-1H,12H-benzo[d]pyrano[3′,4′:6,7]indolizino[1,2-b]quinolin-1-yl)-3-hydroxypropanamide]",IC50,NCI-N87; [3],6 nM
same,IC50,MDA-MB-468; [4],4 nM
"CC[C@@]1(O)C(=O)OCc2c1cc1n(c2=O)Cc2c-1nc1cc(F)c(C)c3c1c2[C@@H](NC(=O)[C@H](O)C1CC1)CCC3 [Compound 11-1, (R)-2-cyclopropyl-N-((1S,10S)-10-ethyl-6-fluoro-10-hydroxy-5-methyl-11,14-dioxo-1,2,3,4,10,11,14,16-octahydro-13H-cyclohepta[de]pyrano[3′,4′:6,7]indolizino[1,2-b]quinolin-1-yl)-2-hydroxyacetamide]",IC50,"NCI-N87; Homo sapiens, NCI-N87 cells, 72 h, CTG, read-out: IC50 (nM), antiproliferative activity on cells NCI-N87",2.5 nM
same,IC50,"MDA-MB-468; Homo sapiens, MDA-MB-468 cells, 72 h, CTG, read-out: IC50 (nM), antiproliferative activity on MDA-MB-468",3.9 nM
same,IC50,"SK-BR-3; Homo sapiens, SK-BR-3 cells, 72 h, CTG, read-out: IC50 (nM), antiproliferative activity on SK-BR-3",2.2 nM
"CC[C@@]1(O)C(=O)OCc2c1cc1n(c2=O)Cc2c-1nc1cc(F)c(C)c3c1c2[C@@H](NC(=O)[C@@H](C)[C@@H](C)O)CCC3 [Compound 39, (2S,3R)—N-((1S,10S)-10-ethyl-6-fluoro-10-hydroxy-5-methyl-11,14-dioxo-1,2,3,4,10,11,14,16-octahydro-13H-cyclohepta[3′,4′:6,7]indolizino[1,2-b]quinolin-1-yl)-3-hydroxy-2-methylbutanamide]",IC50,NCI-N87; [1],9.3 nM
same,IC50,MDA-MB-468; [5],15 nM
same,IC50,SK-BR-3; [2],11 nM
"(S)—N-((1S,10S)-10-ethyl-6-fluoro-10-hydroxy-5-methyl-11,14-dioxo-1,2,3,4,10,11,14,16-octahydro-13H-cyclohepta[3′,4′:6,7]indolizino[1,2-b]quinolin-1-yl)-3-hydroxy-4-methylpentanamide [Compound 37-1]",IC50,MDA-MB-468; [4],19 nM
"C=Cc1c(F)cc2nc3c(c4c2c1CC[C@@H]4NC(=O)[C@H]1C[C@@H](O)C1)Cn1c-3cc2c(c1=O)COC(=O)[C@]2(O)CC [Compound 12, (1S,3R)—N-((1S,9S)-9-ethyl-5-fluoro-9-hydroxy-10,13-dioxo-4-ethenyl-2,3,9,10,13,15-hexahydro-1H,12H-benzo[d]pyrano[3′,4′:6,7]indolizino[1,2-b]quinolin-1-yl)-3-hydroxycyclobutane-1-carboxamide]",IC50,NCI-N87; [1],20 nM
same,IC50,MDA-MB-468; [5],9.3 nM
same,IC50,SK-BR-3; [2],5.7 nM
"CC[C@@]1(O)C(=O)OCc2c1cc1n(c2=O)Cc2c-1nc1cc(F)c(C)c3c1c2[C@@H](NC(=O)[C@H]1C[C@@H](O)C1)CCC3 [Compound 10, (1S,3R)—N-((1S,10S)-10-ethyl-6-fluoro-10-hydroxy-5-methyl-11,14-dioxo-1,2,3,4,10,11,14,16-octahydro-13H-cyclohepta[de]pyrano[3′,4′:6,7]indolizino[1,2-b]quinolin-1-yl)-3-hydroxycyclobutane-1-carboxamide]",IC50,NCI-N87; [1],23 nM
same,IC50,MDA-MB-468; [5],13 nM
same,IC50,SK-BR-3; [2],10 nM
"CC[C@@]1(O)C(=O)OCc2c1cc1n(c2=O)Cc2c-1nc1cc(F)c(C3CC3)c3c1c2[C@@H](NC(=O)[C@@H](O)C1CC1)CCC3 [Compound 33-2, (S)-2-cyclopropyl-N-((1S,10S)-5-cyclopropyl-10-ethyl-6-fluoro-10-hydroxy-11,14-dioxo-1,2,3,4,10,11,14,16-octahydro-13H-cyclohepta[3′,4′:6,7]indolizino[1,2-b]quinolin-1-yl)-2-hydroxyacetamide]",IC50,NCI-N87; [3],9 nM
same,IC50,MDA-MB-468; [4],5 nM
"CC[C@@]1(O)C(=O)OCc2c1cc1n(c2=O)Cc2c-1nc1cc(F)c(C3CC3)c3c1c2[C@@H](NC(=O)[C@H](O)C1CC1)CCC3 [Compound 33-1, (R)-2-cyclopropyl-N-((1S,10S)-5-cyclopropyl-10-ethyl-6-fluoro-10-hydroxy-11,14-dioxo-1,2,3,4,10,11,14,16-octahydro-13H-cyclohepta[3′,4′:6,7]indolizino[1,2-b]quinolin-1-yl)-2-hydroxyacetamide]",IC50,NCI-N87; [3],8 nM
same,IC50,MDA-MB-468; [4],6 nM
